Results on 2 compounds are retold here after patent US4261921A, “Process for preparation of a crystalline insecticidal pyrethroid enantiomer pair” (priority 1979, dated 1981).

Assay [1] concerns southern armyworm (Spodoptera eridania). Briefly: Initial Contact (Foliar) Activity, southern armyworm (SAW). The assay is classed as in vivo. The procedure: (§1) The compound of the invention was dissolved in a solution of 90% water, 9.75% acetone; and 0.25% octylphenoxypolyethoxyethanol to give a solution having 512 ppm (w/w) active ingredient. Aliquots of this solution were diluted with an appropriate amount of water to provide solutions containing various concentrations of active ingredient. Test organisms and techniques were as follows: The activity against Mexican bean beetle (Epilachna varivestis Muls.) and southern armyworm (Spodoptera eridania [Cram.]) was evaluated by spraying the leaves of pinto bean plants with the test solution and infesting with 3rd instar larvae after the foliage had dried. The activity against the pea aphid (Acyrthosiphon pisum [Harris]) was evaluated on broad bean plants whose leaves were sprayed before infestation with adult aphids. To prevent escape of the insects from the test site, the complete test plant or the incised leaves were placed in capped paper cups. The tests were transferred to a holding room for an exposure period of 48 hours. At the end of this time the dead and living insects were counted, the LD50 was calculated, and the potency relative to the commercial insecticide permethrin, 3-phenoxybenzyl (+) cis,trans-3-(2,2-dichloroethenyl)-2,2-dimethylcyclopropanecarboxylate determined.

Assay [2] relates to cabbage looper (Trichoplusia ni). The assay can be described thus: Topical Application Test, cabbage looper (CL). The assay is classed as in vivo. The procedure: (§2) The compound of this invention was tested for insecticidal activity by applying to the insect appropriate amounts of a toxicant solution containing 5 mg/ml of toxicant in acetone. The tests were read twenty-four hours after application of the toxicant solution and the percent kill determined. The commercial insecticide permethrin, 3-phenoxybenzyl (+) cis-trans-3-(2,2-dichlorovinyl)-2,2-dimethylcyclopropanecarboxylate, was used as the standard for comparison. Relative potency, based on a value of 1.0 for permethrin, was determined by comparing the LD50 for the test compound with that for the standard. The insects employed include southern armyworm (Spodoptera eridania [Cram.]), cabbage looper (Trichoplusia ni [Hubner]), Mexican bean beetle (Epilachna varivestis Muls.), beet armyworm (Spodoptera exigua [Hubner]), milkweed bug (Oncopeltus faciatus [Dallas]), tobacco budworm (Heliothis virescens [Fabricius]), and corn earworm (Heliothis zea [Boddle]).

Assay [3] deals with southern armyworm (Spodoptera eridania). The assay can be described thus: Topical Application Test, southern armyworm (SAW). The following applies: LD50 compared with permethrin = 1.0. Format: in vivo. The method, then: as §2
For assay [4], the system named is pea aphid (Acyrthosiphon pisum). Briefly: Initial Contact (Foliar) Activity, pea aphid (PA). The assay is classed as in vivo. The procedure: as §1
The subject of assay [5] is milkweed bug (Oncopeltus fasciatus). The assay can be described thus: Topical Application Test, milkweed bug (MWB). The assay is classed as in vivo. The method, then:
as §2

Assay [6] deals with beet armyworm (Spodoptera exigua). Briefly: Topical Application Test, beet armyworm (BAW). Format: in vivo. The method, then:
as §2

In assay [7] the test system is Mexican bean beetle (Epilachna varivestis). The assay can be described thus: Initial Contact (Foliar) Activity, Mexican bean beetle (MBB). The assay is classed as in vivo. The method, then: as §1
The test system is the same in assay [8]. Briefly: Topical Application Test, Mexican bean beetle (MBB). Format: in vivo. The method, then:
as §2

The test system of the next assay is insects. The assay can be described thus: Topical Application Test, all insects, comparison with permethrin in words. The assay is classed as in vivo. The following applies: topical tests, 24 h. The procedure: as §2
Assay [9] deals with corn earworm (Heliothis zea). The assay can be described thus: Topical Application Test, corn earworm (CEW). Format: in vivo. The procedure: as §2
In assay [10] the test system is tobacco budworm (Heliothis virescens). The assay can be described thus: Topical Application Test, tobacco budworm (TBW). The following applies: LD50 compared with permethrin = 1.0. Format: in vivo. The method, then: as §2
The conditions of assay [11]: U.S. Pat. No. 4,136,195; cited from earlier work.
[12] abbreviates: LD50 compared with permethrin = 1.0.

Molecules are shown by their SMILES.

Take `CC1(C)[C@H](C(=O)O[C@H](C#N)c2cccc(Oc3ccccc3)c2)[C@@H]1C=C(Cl)Cl` (relative stereo) [compound of the invention, racemic mixture of (S)-(cyano)(3-phenoxyphenyl)methyl (1R,cis)-3-(2,2-dichloroethenyl)-2,2-dimethylcyclopropanecarboxylate and (R)-(cyano)(3-phenoxyphenyl)methyl (1S,cis)-3-(2,2-dichloroethenyl)-2,2-dimethylcyclopropanecarboxylate]: the LC50 result was “.22-.38 parts per million” in [1] (southern armyworm 3rd instar larvae, pinto bean, 48 h exposure); 1.39-21.15 parts per million in assay [4] (pea aphid adults, broad bean, 48 h exposure); 1.62-1.86 parts per million in assay [7] (Mexican bean beetle 3rd instar larvae, pinto bean, 48 h exposure). The “Relative Potency” value in assay [1] (southern armyworm, 48 h, relative to permethrin) is listed as 9.8-16.1; in assay [2] (setting [12]), 9.0; in assay [3], 1.0-1.5; in assay [4] (pea aphid, 48 h, relative to permethrin), 2.5-9.8; in assay [5] (setting [12]), 37.6; in [6] (setting [12]) it was 5.1. In addition, the “Relative Potency” value in assay [7] (Mexican bean beetle, 48 h, relative to permethrin) is 5.3-8.8; in assay [8] (setting [12]), 7.2; in [9] (setting [12]), 2.5; in assay [10], 4.2-6.1. In addition, the LD50 in [2] (read 24 h after application) is reported as 14.9 ng/insect; in assay [5] (read 24 h after application) it was 16.4 ng/insect; in assay [6] (read 24 h after application), 218.8 ng/insect; in assay [8] (read 24 h after application) it was 2.03 ng/insect; in [9] (read 24 h after application) it was 110.9 ng/insect. Moreover, the “insecticidal activity compared with permethrin” value with insects was “substantially more active than permethrin”.
As for `CC1(C)[C@H](C(=O)O[C@H](C#N)c2cccc(Oc3ccccc3)c2)[C@@H]1C=C(Cl)Cl` [1R,cis-α-S isomer, (S)-(cyano)(3-phenoxyphenyl)methyl (1R,cis)-3-(2,2-dichloroethenyl)-2,2-dimethylcyclopropanecarboxylate], the “activity among the disclosed diastereomers” value in assay [11] is given as “the more active of the disclosed diastereomers”.
